27 molecules from patent US6440903B1, “Substituted 2,4-diamino-1,3,5-triazines as herbicides” (Bayer Aktiengesellschaft, priority 1996, dated 2002) can be followed below.

One data set has as its system weeds. As to the kind of experiment: Post-emergence test (summary in text). It is filed as in vivo. As to conditions: result in words. How it is done: Solvent: 5 parts by weight of acetone
Emulsifier: 1 part by weight of alkylaryl polyglycol ether
To produce a suitable preparation of active compound, 1 part by weight of active compound is mixed with the stated amount of solvent, the stated amount of emulsifier is added and the concentrate is diluted with water to the desired concentration.
Test plants which have a height of 5-15 cm are sprayed with the preparation of active compound such that the particular amounts of active compounds desired are applied per unit area. The concentration of the spray liquor is chosen so that the particular amounts of active compound desired are applied in 1000 l of water/ha.
After three weeks, the degree of damage to the plants is scored visually in % damage in comparison to the untreated control.
0%=no effect (like untreated control)

Another data set has as its system Amaranthus. As to the kind of experiment: Post-emergence test. As to conditions: greenhouse, scored after three weeks; for pest or weed control at 250 g/ha / pest or weed control at 500 g/ha: Amaranthus, 504 h, read-out: % damage, Amaranthus; for pest or weed control at 250 g/ha / % damage, Amaranthus: 250 g of ai./ha; for pest or weed control at 500 g/ha: 500 g of ai./ha. It counts as in vivo. As to the method:
(§1) Post-emergence Test Solvent: 5 parts by weight of acetone Emulsifier: 1 part by weight of alkylaryl polyglycol ether To produce a suitable preparation of active compound, 1 part by weight of active compound is mixed with the stated amount of solvent, the stated amount of emulsifier is added and the concentrate is diluted with water to the desired concentration. Test plants which have a height of 5-15 cm are sprayed with the preparation of active compound such that the particular amounts of active compounds desired are applied per unit area. The concentration of the spray liquor is chosen so that the particular amounts of active compound desired are applied in 1000 l of water/ha. After three weeks, the degree of damage to the plants is scored visually in % damage in comparison to the untreated control. The Figures Denote: 0%=no effect (like untreated control) 100%=total destruction

In the next data set the test system is Chenopodium. As to the kind of experiment: Post-emergence test. It counts as in vivo. As to conditions: greenhouse, scored after three weeks; for pest or weed control at 250 g/ha / pest or weed control at 500 g/ha: Chenopodium, 504 h, read-out: % damage, Chenopodium; for pest or weed control at 250 g/ha / % damage, Chenopodium: 250 g of ai./ha; for pest or weed control at 500 g/ha: 500 g of ai./ha. How it is done:
as §1

The next data set has as its system Polygonum. As to the kind of experiment: Post-emergence test. It counts as in vivo. As to conditions: greenhouse, scored after three weeks; for pest or weed control at 250 g/ha / pest or weed control at 500 g/ha: Polygonum, 504 h, read-out: % damage, Polygonum; for pest or weed control at 250 g/ha / % damage, Polygonum: 250 g of ai./ha; for pest or weed control at 500 g/ha: 500 g of ai./ha. How it is done: as §1

In a further data set the test system is Setaria. The data set can be described thus: Post-emergence test. It is filed as in vivo. As to conditions: greenhouse, scored after three weeks; for pest or weed control at 250 g/ha / pest or weed control at 500 g/ha: Setaria, 504 h, read-out: % damage, Setaria; for pest or weed control at 250 g/ha / % damage, Setaria: 250 g of ai./ha; for pest or weed control at 500 g/ha: 500 g of ai./ha. How it is done:
as §1

Another data set relates to Viola. As to the kind of experiment: Post-emergence test. It is filed as in vivo. As to conditions: greenhouse, scored after three weeks; for pest or weed control at 250 g/ha / pest or weed control at 500 g/ha: 504 h, read-out: % damage, Viola; for pest or weed control at 250 g/ha / % damage, Viola: 250 g of ai./ha; for pest or weed control at 500 g/ha: 500 g of ai./ha. As to the method: as §1

Another data set relates to Wheat. As to the kind of experiment: Post-emergence test. It is filed as in vivo. As to conditions: greenhouse, scored after three weeks; for plant injury at 500 g/ha: 500 g of ai./ha. How it is done:
as §1

Where [1] appears, read: Triticum aestivum, 504 h, read-out: % damage, Wheat.

SMILES strings stand for the structures.

A word on the melting point: it is the temperature, or range, at which the solid turns liquid. Take `CSc1ccc(C(C)Nc2nc(N)nc(C(F)(F)F)n2)cc1` (racemic) [Example 1, 2-amino4-trifluoromethyl-6-[1-(4-methylthio-phenyl)-ethylamino]-1,3,5-triazine]: the melting point stood at 111 °C.
Molecule `CSc1ccc(C(C)Nc2nc(NC(C)=O)nc(C(F)(F)F)n2)cc1` (racemic) [Example 2, 2-acetylamino-4-trifluoromethyl-6-[1-(4-methylthio-phenyl)-ethylamino]-1,3,5-triazine] showed a melting point of 132 °C.
Consider `CC(Nc1nc(N)nc(C(F)(F)F)n1)c1ccc([S+](C)[O-])cc1` (racemic) [Example 3, 2-amino-4-trifluoromethyl-6-[1-(4-methylsulphinyl-phenyl)-ethylamino]-1,3,5-triazine], for which the melting point was 220 °C (dec.).
Molecule `COc1ccc(C(C)Nc2nc(NC(C)=O)nc(C(F)(F)F)n2)cc1` (centres unmarked) [Example 82] displayed a melting point of 130 °C. The activity against weeds result with weeds is reported as “strong activity”.
The matching figures for `COc1ccc(C(C)Nc2nc(NC(C)=O)nc(C(F)(F)F)n2)cc1` (centres unmarked) [Example 84]: 108 °C and “strong activity”.
In the same order, the values of `CCC(Nc1nc(N)nc(C(F)(F)F)n1)c1ccc(Cl)cc1` (centres unmarked) [Example 85] are 145 °C and “strong activity”.
On to `CCC(Nc1nc(NC(C)=O)nc(C(F)(F)F)n1)c1ccc(Cl)cc1` (centres unmarked) [Example 90], for which the melting point was 116 °C. In the data set on weeds, the activity against weeds result is on record as “strong activity”.
Molecule `COCc1nc(N)nc(NC(C)c2ccc(Cl)cc2)n1` (centres unmarked) [Example 98] gave a melting point of 149 °C. Besides, the activity against weeds entry with weeds was “strong activity”.
The molecule `COCc1nc(NC(C)=O)nc(NC(C)c2ccc(SC)cc2)n1` (centres unmarked) [Example 103] gave a melting point of 141 °C. Besides, in the data set on weeds, the activity against weeds result is reported as “strong activity”.
The matching figures for `CSc1ccc(C(C)Nc2nc(N)nc(C(Cl)Cl)n2)cc1` (centres unmarked) [Example 108]: 125 °C and “strong activity”.
The matching figures for `CSc1ccc(C(C)Nc2nc(N)nc(C(C)(Cl)Cl)n2)cc1` (centres unmarked) [Example 126]: 133 °C and “strong activity”.
The matching figures for `CC(=O)Nc1nc(NC(C)c2ccc(Cl)cc2)nc(C(Cl)Cl)n1` (centres unmarked) [Example 145]: 132 °C and “strong activity”.
`CC(=O)Nc1nc(NC(C)c2ccc(Cl)cc2)nc(C(C)Cl)n1` (centres unmarked) [Example 146] yielded a melting point of 126 °C. The activity against weeds entry in the data set with weeds is on record as “strong activity”.
For the molecule `CC(=O)Nc1nc(NC(C)c2ccc(Cl)cc2)nc(C(C)Cl)n1` (centres unmarked) [drawing 122], the pest or weed control at 250 g/ha in the data set on Amaranthus was determined as 100%; with Chenopodium it was 100%; in the data set on Polygonum it was 100%; in the data set with Setaria it was 80%; in the data set with Viola, 95%. Further, in the data set on Wheat (Triticum aestivum, 504 h, 250 g of ai./ha, read-out: % damage, Wheat), the plant injury at 250 g/ha worked out at 10%.
Take `CC(Nc1nc(N)nc(C(F)C(F)(F)F)n1)c1ccc(Cl)cc1` (centres unmarked) [drawing 124]: the “% damage, Amaranthus” value in the data set with Amaranthus was found to be 100%. Besides, the “% damage, Chenopodium” value in the data set with Chenopodium turned out to be 100%. Moreover, the “% damage, Polygonum” value with Polygonum came to 95%. The “% damage, Setaria” value in the data set with Setaria is on record as 90%. For the same molecule, the “% damage, Viola” value in the data set on Viola is listed as 95%. Besides, the “% damage, Wheat” value in the data set with Wheat (250 g of ai./ha) is listed as 10%.
With `CC(Cl)c1nc(N)nc(NC(C)c2ccc(Cl)cc2)n1` (centres unmarked) [drawing 125], in the data set on Amaranthus, the “% damage, Amaranthus” value is given as 100%. The “% damage, Chenopodium” value in the data set on Chenopodium is given as 95%. The “% damage, Polygonum” value in the data set with Polygonum came out at 95%. The “% damage, Setaria” value with Setaria was 80%. For the same molecule, the “% damage, Viola” value in the data set on Viola stood at 95%. Moreover, the “% damage, Wheat” value with Wheat (250 g of ai./ha) is on record as 10%.
Take `CC(Nc1nc(N)nc(C(C)(Cl)Cl)n1)c1ccc(Cl)cc1` (centres unmarked) [drawing 126]: the pest or weed control at 500 g/ha was 100% in the data set with Amaranthus; 100% in the data set with Chenopodium; 100% in the data set with Polygonum; 90% with Setaria; 100% with Viola. Moreover, in the data set with Wheat (setting [1]), the plant injury at 500 g/ha is 10%.
Turning to `CC(Nc1nc(N)nc(C(F)C(F)(F)F)n1)c1ccc(Cl)cc1` (centres unmarked) [drawing 128], the “% damage, Amaranthus” value with Amaranthus is recorded as 100%. In the data set with Chenopodium, the “% damage, Chenopodium” value stood at 100%. Moreover, the “% damage, Polygonum” value in the data set with Polygonum is 100%. Besides, in the data set on Setaria, the “% damage, Setaria” value was 90%. In addition, the “% damage, Viola” value in the data set with Viola is 100%. In the data set with Wheat (250 g of ai./ha), the “% damage, Wheat” value stood at 10%.
For the molecule `CC(Nc1nc(N)nc(C(Cl)Cl)n1)c1ccc(Cl)cc1` (centres unmarked) [drawing 129], the pest or weed control at 500 g/ha in the data set on Amaranthus, in the data set on Chenopodium, in the data set on Polygonum, in the data set with Setaria and with Viola was 100% throughout. In addition, in the data set with Wheat (setting [1]), the plant injury at 500 g/ha stood at 10%.
In the case of `CC(Cl)c1nc(N)nc(NC(C)c2ccc(Cl)cc2)n1` (centres unmarked) [drawing 131], the “% damage, Amaranthus” value with Amaranthus was determined as 100%. In the data set with Chenopodium, the “% damage, Chenopodium” value came out at 100%. For the same molecule, the “% damage, Polygonum” value in the data set with Polygonum turned out to be 100%. For the same molecule, the “% damage, Setaria” value in the data set with Setaria is given as 90%. In addition, in the data set with Viola, the “% damage, Viola” value was 100%. Moreover, the “% damage, Wheat” value in the data set with Wheat (250 g of ai./ha) turned out to be 10%.
On to `CCc1nc(NC(C)=O)nc(NC(C)c2ccc(Cl)cc2)n1` (centres unmarked) [drawing 132], for which the pest or weed control at 500 g/ha in the data set with Amaranthus worked out at 100%; with Chenopodium it was 100%; in the data set on Polygonum, 100%; in the data set on Setaria, 80%; in the data set with Viola, 100%. In addition, in the data set on Wheat (setting [1]), the plant injury at 500 g/ha worked out at 10%.
With `CC(=O)Nc1nc(NC(C)c2ccc(Cl)cc2)nc(C(Cl)Cl)n1` (centres unmarked) [drawing 133], the pest or weed control at 500 g/ha came to 100% in the data set on Amaranthus; 100% with Chenopodium; 100% in the data set with Polygonum; 80% in the data set on Setaria; 100% with Viola. Further, the plant injury at 500 g/ha in the data set with Wheat (setting [1]) stood at 10%.
Regarding `CC(=O)Nc1nc(NC(C)c2ccc(Cl)cc2)nc(C(C)Cl)n1` (centres unmarked) [drawing 134], the pest or weed control at 500 g/ha in the data set on Amaranthus, in the data set on Chenopodium, with Polygonum, in the data set on Setaria and with Viola was 100% each time. The plant injury at 500 g/ha with Wheat (setting [1]) turned out to be 10%.
In the case of `COCc1nc(NC(C)=O)nc(NC(C)c2ccc(Cl)cc2)n1` (centres unmarked) [drawing 135], the pest or weed control at 500 g/ha with Amaranthus amounted to 100%; with Chenopodium, 100%; with Polygonum, 100%; with Setaria it was 70%; in the data set with Viola, 100%. In addition, in the data set on Wheat (setting [1]), the plant injury at 500 g/ha stood at 10%.
Regarding `CCC(Nc1nc(N)nc(C(F)(F)F)n1)c1ccc(Cl)cc1` (centres unmarked) [drawing 137], the pest or weed control at 250 g/ha in the data set on Amaranthus was found to be 100%; in the data set on Chenopodium, 100%; in the data set with Polygonum it was 100%; with Setaria it was 95%; in the data set with Viola it was 100%. Also, the “% damage, Wheat” value with Wheat (250 g of ai./ha) is on record as 0%.
Take `COc1ccc(C(C)Nc2nc(N)nc(C(F)(F)F)n2)cc1` (centres unmarked) [drawing 138]: the pest or weed control at 500 g/ha with Amaranthus, with Chenopodium, with Polygonum, in the data set on Setaria and in the data set with Viola was 100% each time. The plant injury at 500 g/ha with Wheat (setting [1]) was 0%.
As for `COc1ccc(C(C)Nc2nc(NC(C)=O)nc(C(F)(F)F)n2)cc1` (centres unmarked) [drawing 141], the pest or weed control at 500 g/ha in the data set on Amaranthus stood at 100%; in the data set with Chenopodium, 100%; with Polygonum, 100%; in the data set on Setaria, 95%; with Viola it was 100%. Besides, the plant injury at 500 g/ha in the data set on Wheat (setting [1]) was 10%.
